Reference: PubChem BioAssay (NCI)
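Five compound concentrations were applied to cells in 96-well plates for 48 hours; endpoints were derived by simple linear interpolation of the resulting dose-response curve. GI50: concentration for 50% inhibition of growth. At the TGI there is no net growth.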

Legend:
Assay in all cases: NCI-60 cell line screen, 48 h
HCT-15 colon = tested on: HCT-15 colon
EKVX NSCLC = tested on: EKVX NSCLC
A498 renal = tested on: A498 renal
NCI-H460 lung = tested on: NCI-H460 lung
OVCAR-8 ovarian = tested on: OVCAR-8 ovarian
UACC-62 melanoma = tested on: UACC-62 melanoma
TK-10 renal = tested on: TK-10 renal
UACC-257 melanoma = tested on: UACC-257 melanoma
OVCAR-3 ovarian = tested on: OVCAR-3 ovarian
SR leukemia = tested on: SR leukemia

Row | Structure (SMILES) | GI50 (HCT-15 colon) [µM] | TGI (HCT-15 colon) [µM] | GI50 (EKVX NSCLC) [µM] | TGI (EKVX NSCLC) [µM] | GI50 (A498 renal) [µM] | TGI (A498 renal) [µM] | GI50 (NCI-H460 lung) [µM] | TGI (NCI-H460 lung) [µM] | GI50 (OVCAR-8 ovarian) [µM] | TGI (OVCAR-8 ovarian) [µM] | GI50 (UACC-62 melanoma) [µM] | TGI (UACC-62 melanoma) [µM] | GI50 (TK-10 renal) [µM] | TGI (TK-10 renal) [µM] | GI50 (UACC-257 melanoma) [µM] | TGI (UACC-257 melanoma) [µM] | GI50 (OVCAR-3 ovarian) [µM] | TGI (OVCAR-3 ovarian) [µM] | GI50 (SR leukemia) [µM] | TGI (SR leukemia) [µM]
1 | CCc1nc(C)cn1C(=O)OCc1nc2nc(Cl)nc(N3CCOCC3)c2[nH]1 | 0.677 | 2.22 | 1.43 | 3.07 | 1.92 | 3.54 | 1.7 | 3.76 | 1.47 | 3.61 | 1.44 | 2.75 | 1.79 | 3.28 | 1.6 | 3.26 | 0.636 | 1.98 | 0.288 | > 100
2 | CNC(=O)ON(C(C)=O)C(=O)NC | > 76.4 | 109 | 108 | 241 |  | 211 |  | 220 |  | 235 | > 88.2 | 149 |  | 70.6 |  | 159 | > 81.9 | 140 | 7.31 | > 72.3
3 | CC12OC(CC(O)C1O)n1c3ccccc3c3c4c(c5c6ccccc6n2c5c31)C(=O)N(CCN1CCOCC1)C4=O (stereo not given) | 1.26 | 8.21 | 1.48 | 8.94 | 0.838 | 3.27 | 0.205 | 1.7 | 1.43 | 8.71 | 0.568 | 1.47 | 0.953 | 5.48 | 1.97 | 7.64 | 1.55 | 7.33 | 0.176 | 6.76
4 | CCOC(=O)C1=C(OC(OCC)C([Se]c2ccccc2)C(C)C)CCC1 (stereo not given) |  | 29.4 |  | 46.7 |  | > 100 |  | 31.4 |  | 27.4 |  | 33.6 |  | > 100 |  | 75.4 |  | 40 |  | 15.4
5 | CCOC(=O)C1=C(C)NC(=O)NC1c1ccc(OC)cc1OC (stereo not given) |  | > 100 |  | > 100 |  | > 100 |  | > 100 |  | > 100 |  | > 100 |  | > 100 |  | > 100 |  | > 100 |  | > 100
6 | Cc1cccc(C)c1NC(=O)CCC(=O)NC(N)=NC#N |  | > 100 |  | > 100 |  | > 100 |  | > 100 |  | > 100 |  | > 100 |  | > 100 |  | > 100 |  | > 100 |  | > 100
7 | COC(=O)[C@]12CC[C@@H](C)[C@H](C)[C@@H]1C1=CC[C@@H]3[C@@]4(C)C(C=O)=C[C@@](C)(CO)[C@@H]4[C@H](O)C[C@@]3(C)[C@]1(C)CC2 | 2.11 | 6 | 4.03 | 16 | 6.37 | 19.4 | 3.03 | 9.6 | 3.51 | 14.4 | 3.71 | 14.8 | 2.49 | 9.42 | 3.11 | 13.1 | 2.54 | 7.78 | 1.92 | 6.74
8 | C#C[C@@]1(O)[C@@H](CO)O[C@@H](n2cc(Br)c3c(Cl)ccnc32)[C@@H]1O | 0.55 | > 100 | 17.3 | > 100 | 0.303 | 2.55 | 4.29 | > 100 | 0.343 | 1.91 | 15.6 | > 100 | > 67 | > 100 | > 100 | > 100 | 0.621 | > 75 | 1.06 | > 100
9 | N#Cc1c2ccccc2c(Cc2ccc3c(c2)OCCOCCOCCOCCOCCO3)c2ccccc12 |  | 19.2 |  | 35.9 |  | 27.6 |  | 25.1 |  | 18.3 |  | 19.8 |  | 19.3 |  | 22.5 |  | 16.4 |  | > 100
10 | CN(C)c1ccc(/C=C(\C#N)c2cc3ccccc3[nH]2)cc1 | 0.509 | > 100 | 2.94 | > 100 | 0.391 | 6.61 | 0.476 | > 100 | 2.35 | > 100 | 0.679 | > 100 | 2.66 | > 100 | 4.86 | > 100 | 0.409 | 4.06 | 0.497 | > 100
11 | CC(C)(C)[Si](C)(C)OCC1OC(n2cnc3c(=O)[nH]cnc32)CC1O (stereo not given) |  | > 100 |  | > 100 |  | > 100 |  | > 100 |  | > 100 |  | > 100 |  | > 100 |  | > 100 |  | > 100 |  | > 100
12 | CN1CCN(CCCNC(=O)c2c3c(n4ccccc24)C(=O)c2ncccc2C3=O)CC1 | 1.25 | 8.47 | 1.61 | 5.94 | 10 | 25.1 | 0.316 | 1.75 | 0.888 | 5.99 | 0.764 | 3 | 5.13 | 40.9 | 0.971 | 2.3 | 0.4 | 3.53 | 0.529 | > 26.2
13 | COC(=O)C1C(C(=O)O)C2(c3ccccc3)C(=O)C1(c1ccccc1)C(c1ccccc1)=C2c1ccccc1 (stereo not given) | 32.5 | > 100 | 18.8 | 42.3 | 15.2 | 29.3 | 13.6 | 29.1 | 18.8 | 35.9 | 15.5 | 29.9 | 39.2 | 99 | 19.6 | 40.9 | 19.7 | 50.4 | 23.8 | 56.6
14 | O=C(/C=C/c1ccccc1)c1cccc2ccccc12 | 3.2 | 13.4 | 2.75 | 12.6 | 2.3 | 6.75 | 1.84 | 3.86 | 1.82 | 3.97 | 3.46 | 11.8 | 4.04 | 14.2 | 4.13 | 15.5 | 2.01 | 4.71 | 1.17 | 3.75
15 | CC1(C)c2ccccc2N2C(c3ccccc3)=NOC21C (stereo not given) |  | > 100 |  | > 100 |  | > 100 |  | > 100 |  | > 100 |  | > 100 |  | > 100 |  | > 100 |  | > 100 |  | > 100
16 | Cc1ccc(/C=N/NC(=O)c2ccccc2Oc2ccccc2)o1 | 37.9 | > 100 | 38.8 | > 100 | > 58.5 | > 100 | 44.4 | > 100 | 39 | > 100 | 17.3 | > 81.2 | 71.6 | > 100 | 36.5 | > 100 | 40.1 | > 100 | 40 | > 100
